# Values of other authors as cited in patent US10857210B2, “Compositions and methods to promote wound healing” (Wayne State University, priority 2015, dated 2020).
# How the values were obtained:
# Tet promoter = conditions: relative to tetracycline
smiles,measurement,setting,value
Cc1c2c(c(O)c3c(O)cccc13)C(=O)[C@]1(O)C(=O)C(C(N)=O)=C(O)[C@@H](N(C)C)[C@@H]1C2 [anhydrotetracycline],"concentration that activates the Tet promoter, lower than with tetracycline",Tet promoter,2 logs
same,solubility in water,,fully soluble in water
